According to article PMC2361661 (British Journal of Cancer, 2005):
Where “and” joins values, the source holds several entries; their conditions need not be identical. Identical values can stand only once. Like-named read-outs stand apart in the source and are kept apart here.

Experiments:
[1] = molecular target: T1, thymidylate synthase (TS) (Homo sapiens, UniProt P04818); settings: ref Ford et al, 2002, cited from earlier work
T1 construct: endogenous in cells; host or cells: tissues of treated patients (in vivo)

ovarian cancer = settings: relapsed ovarian cancer, cited from earlier work
clinical = settings: human, plasma
Procedure: (§1) Prior to each assay the plasma samples were centrifuged at 3000 g for 5 min × 2, to sediment precipitants that would block pipette tips.
(§2) All dilutions required for the ELISA were performed by Multiprobe II automated liquid handling equipment (Perkin-Elmer, Cambridge, UK). […] Following further incubation and washing steps, the optical absorbance was read and plotted using a four-parameter logistic curve fitted by nonlinear regression as previously described ([Aherne et al, 2001]).
(§3) PK analysis was performed using WinNonlin Software, version 3.2 (Pharsight Corp., CA, USA). […] The following PK parameters were evaluated: maximum plasma concentration (Cmax), area under the plasma concentration–time curve (AUC), total body clearance (Cl), volume of distribution at steady state (Vss) and the terminal half-life (t1/2).

[2] = BGC9331 plasma pharmacokinetics by ELISA in phase I patients; settings: for Median Cmax / Median plasma clearance: ±s.d.; for AUClast / Cl_obs / Cmax / HL_Lambda_z / Vz_obs: BGC9331 65 mg m^−2, carboplatin AUC 5
Procedure: as §1, §2, §3

[3] = design: method as in Plummer et al, 2003; settings: ref Plummer et al, 2003, cited from earlier work; for AUC: mass spectroscopy
[4] = cited from earlier work
[5] = system: human ovarian tumour cell lines; settings: ref Kelland et al, 1995; cited from earlier work
[6] = system: folyl-polyglutamate synthase (FPGS); design: method as in Jackman et al, 1993; settings: compared to RTX; ref Jackman et al, 1993; cited from earlier work
[7] = Carboplatin pharmacokinetics by flameless atomic absorption spectrophotometry (FAAS); settings: free carboplatin, carboplatin AUC 5 with BGC9331
Procedure: Carboplatin was measured by FAAS. This method has been previously described ([LeRoy et al, 1977]). Samples were analysed on a Perkin-Elmer HGA800, AA300 Flameless atomic absorption spectrophotometer, and a Platinum Lumina HCC lamp (Perkin-Elmer, Beaconsfield, UK).
Calibration standards were prepared individually for each assay batch by adding Carboplatin standards to control human plasma and ultrafiltrate. A blank was made using either plasma or ultrafiltrate only. A range of standards was made ranging from 5 to 50 ng ml^−1 Pt (plasma samples) to 10–150 ng ml^−1 Pt (ultrafiltrates).
For plasma analysis, three QCs were included in duplicate, ranging from low (15ng ml^−1 Pt) to medium (25 ng ml^−1 Pt) and high (45 ng ml^−1 Pt), by diluting stock solutions with plasma. For ultrafiltrate analysis low (20 ng ml^−1 Pt), medium (60 ng ml^−1 Pt) and high (120 ng ml^−1 Pt) QCs and stock solutions were diluted with plasma ultrafiltrate. A run was acceptable if four out of six QCs were within 15% of nominal concentration.

[8] = dose level 1 (BGC9331 40 mg m^−2, carboplatin AUC 5), day 1
[9] = dose level 1 (BGC9331 40 mg m^−2, carboplatin AUC 5), day 8
[10] = dose level 2 (BGC9331 65 mg m^−2, carboplatin AUC 5), day 1
[11] = dose level 2 (BGC9331 65 mg m^−2, carboplatin AUC 5), day 8

T1 sequence (P04818 2-313 limits assumed): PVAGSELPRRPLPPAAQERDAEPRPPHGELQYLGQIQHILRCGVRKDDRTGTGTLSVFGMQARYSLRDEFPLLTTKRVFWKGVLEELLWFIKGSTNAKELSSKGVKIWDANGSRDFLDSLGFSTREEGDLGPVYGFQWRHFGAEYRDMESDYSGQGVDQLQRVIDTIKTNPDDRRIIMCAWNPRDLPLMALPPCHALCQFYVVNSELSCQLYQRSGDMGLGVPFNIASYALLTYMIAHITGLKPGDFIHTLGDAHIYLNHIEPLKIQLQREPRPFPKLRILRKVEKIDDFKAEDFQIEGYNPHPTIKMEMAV

Which results are given for `O=c1[nH]cc(F)c(=O)[nH]1` [5-FU, 5-fluorouracil]?
peak dUrd elevation ([1]; bolus 5-FU): 235±125%; peak dUrd elevation ([1]; infusional 5-FU): 228±86%; response rate (ovarian cancer; ref Look et al, 1995): 14%

Which results are given for `C#CCN(Cc1cc2c(=O)[nH]c(C)nc2cc1C)c1ccc(C(=O)N[C@@H](CCc2nnn[nH]2)C(=O)O)c(F)c1` [BGC9331]?
AUC (clinical; 40 mg): 110 µg·h/mL; Cmax (clinical; 40 mg): 7260 ng/mL; AUC (clinical; 65 mg): 140 µg·h/mL; Cmax (clinical; 65 mg): 10400 ng/mL; Tmax (clinical; 65 mg): 30 min; Median Cmax [2, 8]: 11200 ± 2500 ng/mL and 11210 ng/mL; Median plasma clearance [2, 8]: 478 ± 61 mL/h; Median Cmax [2, 9]: 7300 ± 5000 ng/mL; Median plasma clearance [2, 9]: 971 ± 265 mL/h; Median Cmax [2, 10]: 16500 ± 2400 ng/mL and 16540 ng/mL; Median plasma clearance [2, 10]: 1197 ± 580 mL/h; Median Cmax [2, 11]: 10400 ± 4000 ng/mL; Median plasma clearance [2, 11]: 746 ± 584 mL/h; AUClast ([2]; patient 4, administration 1): 90.4 µg·mL/h; Cl_obs ([2]; patient 4, administration 1): 1197.5 mL/h; Cmax ([2]; patient 4, administration 1): 16800 ng/mL; HL_Lambda_z ([2]; patient 4, administration 1): 18.2 h; Vz_obs ([2]; patient 4, administration 1): 31423.8 mL; AUClast ([2]; patient 4, administration 2): 68.4 µg·mL/h; Cl_obs ([2]; patient 4, administration 2): 1646.5 mL/h; Cmax ([2]; patient 4, administration 2): 10400 ng/mL; HL_Lambda_z ([2]; patient 4, administration 2): 27.8 h; Vz_obs ([2]; patient 4, administration 2): 66088.6 mL; AUClast ([2]; patient 5, administration 1): 264.6 µg·mL/h; Cl_obs ([2]; patient 5, administration 1): 378.4 mL/h; Cmax ([2]; patient 5, administration 1): 16600 ng/mL; HL_Lambda_z ([2]; patient 5, administration 1): 25.5 h; Vz_obs ([2]; patient 5, administration 1): 13891.3 mL; AUClast ([2]; patient 5, administration 2): 193.3 µg·mL/h; Cl_obs ([2]; patient 5, administration 2): 549.2 mL/h; Cmax ([2]; patient 5, administration 2): 16700 ng/mL; Vz_obs ([2]; patient 5, administration 2): 17208.1 mL; AUClast ([2]; patient 6, administration 2): 141.3 µg·mL/h; Cl_obs ([2]; patient 6, administration 2): 746.0 mL/h; Cmax ([2]; patient 6, administration 2): 9300 ng/mL; HL_Lambda_z ([2]; patient 6, administration 2): 28.1 h; Vz_obs ([2]; patient 6, administration 2): 30257.3 mL; AUC ([3]; BGC9331 monotherapy 42 mg m^−2): 176 µg·h/mL; Cmax ([3]; BGC9331 monotherapy 42 mg m^−2): 10400 ng/mL; AUC ([3]; BGC9331 monotherapy 69 mg m^−2): 322 µg·h/mL; Cmax ([3]; BGC9331 monotherapy 69 mg m^−2): 19100 ng/mL; patients with grade 3 or 4 neutropaenia ([4]; BGC9331 130 mg m^−2 days 1 and 8 with cisplatin 75 mg m^−2, ref Bilenker et al, 2004): three of the four; patients affected by diarrhoea ([4]; previous studies, ref Rader et al, 2003): 36%; recommended single-agent phase II dose ([4]; ref Plummer et al, 2003): 130 mg m^−2

With `C#CCN(Cc1ccc2nc(N)[nH]c(=O)c2c1)c1ccc(C(=O)N[C@@H](CCC(=O)O)C(=O)O)cc1` [CB3717, N10-propargyl-5,8-dideazafolic acid] as the compound, how does the “cross-resistance to platinum-based agents” value [5] read?
Its value is “non crossresistance”.

What about the “substrate for FPGS” value [6] of the same compound?
Its value is “relatively poor substrate”.

Which Alpha_HL ([7]; patient 1, dose level 1) does the source give for `N.N.O=C([O-])C1(C(=O)[O-])CCC1.[Pt+2]` [carboplatin] here?
Its Alpha_HL is 2.2 h.

And the Beta_HL ([7]; patient 1, dose level 1)?
Its Beta_HL is 50.3 h.

And the CL ([7]; patient 1, dose level 1)?
The CL was 8.7 L/h.

And the V2 ([7]; patient 1, dose level 1)?
Its V2 is 91.2 L.

And the Vss ([7]; patient 1, dose level 1)?
Its Vss is 123.3 L.

What about the Alpha_HL ([7]; patient 3, dose level 1) of the same compound?
Its Alpha_HL is 1.2 h.

What about the Beta_HL ([7]; patient 3, dose level 1) of the same compound?
Its Beta_HL is 8.2 h.

And the CL ([7]; patient 3, dose level 1)?
The CL was 4.8 L/h.

What about the V2 ([7]; patient 3, dose level 1) of the same compound?
The V2 was 15.1 L.

What about the Vss ([7]; patient 3, dose level 1) of the same compound?
The Vss was 27.1 L.

And the Alpha_HL ([7]; patient 4, dose level 2)?
The Alpha_HL was 2.4 h.

And the Beta_HL ([7]; patient 4, dose level 2)?
The Beta_HL was 100.9 h.

What about the CL ([7]; patient 4, dose level 2) of the same compound?
The CL was 7.0 L/h.

And the V2 ([7]; patient 4, dose level 2)?
Its V2 is 158.5 L.

What about the Vss ([7]; patient 4, dose level 2) of the same compound?
The Vss was 186.5 L.

What about the Alpha_HL ([7]; patient 5, dose level 2) of the same compound?
The Alpha_HL was 1.5 h.

And the Beta_HL ([7]; patient 5, dose level 2)?
Its Beta_HL is 92.0 h.

What about the CL ([7]; patient 5, dose level 2) of the same compound?
Its CL is 6.0 L/h.

And the V2 ([7]; patient 5, dose level 2)?
The V2 was 101.0 L.

What about the Vss ([7]; patient 5, dose level 2) of the same compound?
Its Vss is 115.6 L.

And the Alpha_HL ([7]; patient 6, dose level 2)?
The Alpha_HL was 1.8 h.

And the Beta_HL ([7]; patient 6, dose level 2)?
The Beta_HL was 60.4 h.

And the CL ([7]; patient 6, dose level 2)?
Its CL is 6.7 L/h.

And the V2 ([7]; patient 6, dose level 2)?
Its V2 is 88.9 L.

And the Vss ([7]; patient 6, dose level 2)?
Its Vss is 109.7 L.

And the Alpha_HL ([7]; patient 14, dose level 3)?
The Alpha_HL was 0.4 h.

And the Beta_HL ([7]; patient 14, dose level 3)?
Its Beta_HL is 2.6 h.

What about the CL ([7]; patient 14, dose level 3) of the same compound?
Its CL is 6.1 L/h.

What about the V2 ([7]; patient 14, dose level 3) of the same compound?
The V2 was 8.6 L.

And the Vss ([7]; patient 14, dose level 3)?
The Vss was 16.5 L.

For `Cc1nc2ccc(CN(C)c3ccc(C(=O)N[C@@H](CCC(=O)O)C(=O)O)s3)cc2c(=O)[nH]1` [raltitrexed], which “cross-resistance to platinum-based agents” value [5] is on record?
The value was “non crossresistance”.

What about the “day on which dUrd reapproaches baseline” value ([1]; RTX on a 21-day cycle) of the same compound?
The value was about 15 days.

What about the “peak percentage rise of dUrd” value ([1]; RTX on a 21-day cycle) of the same compound?
The value was 349±128%.

And the response rate (ovarian cancer; ref Gore et al, 1995)?
Its response rate is 7%.

What about the response rate (ovarian cancer; ref Muggia et al, 1998) of the same compound?
Its response rate is 11%.
